Experimental data published in paper PMC7201885 (The Journal of General Physiology, 2020).
“And” between values parts separate entries of the source, which are not always exact repeats. Equal values may be shown once. Read-outs that look alike come from different tables or passages of the source.

Columns and labels:
[1] = molecular target: R271A nvTRPM2 (Nematostella vectensis, UniProt A7T1N0, R271A); assay: Inside-out patch-clamp, R271A nvTRPM2; type: cell-based
[2] = molecular target: T143A nvTRPM2 (Nematostella vectensis, UniProt A7T1N0, T143A); assay: Inside-out patch-clamp, T143A nvTRPM2; type: cell-based
Sequence of T143A nvTRPM2 (A7T1N0 whole entry T143A): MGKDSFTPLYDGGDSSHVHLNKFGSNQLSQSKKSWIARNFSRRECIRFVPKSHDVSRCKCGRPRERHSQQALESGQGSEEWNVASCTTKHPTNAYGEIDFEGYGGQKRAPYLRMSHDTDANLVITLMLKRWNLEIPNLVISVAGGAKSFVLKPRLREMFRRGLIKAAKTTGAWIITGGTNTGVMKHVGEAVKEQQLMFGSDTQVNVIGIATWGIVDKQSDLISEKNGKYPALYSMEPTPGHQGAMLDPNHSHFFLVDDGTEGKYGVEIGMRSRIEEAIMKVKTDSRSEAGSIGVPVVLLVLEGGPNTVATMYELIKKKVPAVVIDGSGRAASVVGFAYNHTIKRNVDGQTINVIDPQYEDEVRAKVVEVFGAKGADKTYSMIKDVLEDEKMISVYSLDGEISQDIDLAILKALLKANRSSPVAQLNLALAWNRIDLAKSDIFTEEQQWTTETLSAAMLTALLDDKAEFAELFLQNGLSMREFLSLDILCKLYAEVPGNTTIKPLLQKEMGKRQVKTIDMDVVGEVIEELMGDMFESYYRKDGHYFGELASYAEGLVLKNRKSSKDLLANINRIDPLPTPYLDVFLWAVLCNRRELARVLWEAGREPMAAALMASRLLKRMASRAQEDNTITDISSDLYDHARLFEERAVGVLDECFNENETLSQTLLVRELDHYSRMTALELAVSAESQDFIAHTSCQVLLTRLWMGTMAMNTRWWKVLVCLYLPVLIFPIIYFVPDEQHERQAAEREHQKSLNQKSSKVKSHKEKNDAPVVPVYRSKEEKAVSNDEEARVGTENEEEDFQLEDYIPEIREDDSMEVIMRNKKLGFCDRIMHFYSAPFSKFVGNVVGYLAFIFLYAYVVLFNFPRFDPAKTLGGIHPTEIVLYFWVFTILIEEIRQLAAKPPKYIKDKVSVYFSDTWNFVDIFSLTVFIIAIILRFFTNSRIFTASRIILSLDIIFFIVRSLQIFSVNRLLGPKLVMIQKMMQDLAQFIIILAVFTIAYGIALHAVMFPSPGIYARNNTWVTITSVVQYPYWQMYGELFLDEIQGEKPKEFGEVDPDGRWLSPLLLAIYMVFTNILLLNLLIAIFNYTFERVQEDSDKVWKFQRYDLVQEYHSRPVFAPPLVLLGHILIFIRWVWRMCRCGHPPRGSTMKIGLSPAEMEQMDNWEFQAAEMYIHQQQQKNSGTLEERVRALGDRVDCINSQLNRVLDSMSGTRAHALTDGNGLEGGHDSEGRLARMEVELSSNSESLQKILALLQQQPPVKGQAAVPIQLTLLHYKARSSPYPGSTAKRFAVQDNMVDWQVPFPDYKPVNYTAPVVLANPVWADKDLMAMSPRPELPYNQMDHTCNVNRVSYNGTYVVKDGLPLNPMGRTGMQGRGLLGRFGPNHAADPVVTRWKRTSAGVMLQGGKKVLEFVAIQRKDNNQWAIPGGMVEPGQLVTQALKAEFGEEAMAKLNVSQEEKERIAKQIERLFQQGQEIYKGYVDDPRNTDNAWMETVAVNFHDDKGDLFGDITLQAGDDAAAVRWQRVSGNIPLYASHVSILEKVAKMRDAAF

[3] = molecular target: R329A nvTRPM2 (Nematostella vectensis, UniProt A7T1N0, R329A); assay: Inside-out patch-clamp, R329A nvTRPM2; type: cell-based
Sequence of R329A nvTRPM2 (A7T1N0 whole entry R329A): as the sequence (A7T1N0 whole entry T143A) above, with A143T, R329A counted along it

[4] = system: hsTRPM2; details: cited from earlier work
[5] = molecular target: T179A nvTRPM2 (Nematostella vectensis, UniProt A7T1N0, T179A); assay: Inside-out patch-clamp, T179A nvTRPM2; type: cell-based
Sequence of T179A nvTRPM2 (A7T1N0 whole entry T179A): as the sequence (A7T1N0 whole entry T143A) above, with A143T, T179A counted along it

[6] = molecular target: Y264A nvTRPM2 (Nematostella vectensis, UniProt A7T1N0, Y264A); assay: Inside-out patch-clamp, Y264A nvTRPM2; type: cell-based
Sequence of Y264A nvTRPM2 (A7T1N0 whole entry Y264A): as the sequence (A7T1N0 whole entry T143A) above, with A143T, Y264A counted along it

[7] = molecular target: T307A nvTRPM2 (Nematostella vectensis, UniProt A7T1N0, T307A); assay: Inside-out patch-clamp, T307A nvTRPM2; type: cell-based
Sequence of T307A nvTRPM2 (A7T1N0 whole entry T307A): as the sequence (A7T1N0 whole entry T143A) above, with A143T, T307A counted along it

[8] = molecular target: nvTRPM2 (Nematostella vectensis, UniProt A7T1N0); assay: Inside-out patch-clamp, full-length; type: cell-based; details: for Mode of action on nvTRPM2: compared with ADPR; for Maximal fractional activation: relative to current in 100 µM ADPR
Sequence of nvTRPM2 (A7T1N0 whole entry): as the sequence (A7T1N0 whole entry T143A) above, with A143T counted along it

[9] = read-out: EC50 for channel activation, 125 µM Ca2+ + 2.5 µM PIP2
[10] = full-length nvTRPM2, 125 µM Ca2+
[11] = read-out: EC50 for nvTRPM2 channel activation, full-length nvTRPM2, 125 µM cytosolic Ca2+, Hill fit, −20 mV
[12] = read-out: EC50 for channel activation by Ca2+ (fractional Po), saturating ADPRP (100 µM) + 2.5 µM PIP2
[13] = saturating ADPRP (100 µM) + 2.5 µM PIP2
[14] = read-out: EC50 for channel activation by Ca2+ (fractional Po), saturating ADPRP (1,000 µM) + 2.5 µM PIP2
[15] = saturating ADPRP (1,000 µM) + 2.5 µM PIP2
[16] = 25 µM PIP2, 125 µM Ca2+ + 3.2 mM ADPR
[17] = 2.5 and 25 µM PIP2, 125 µM Ca2+ + 3.2 mM ADPR

Sequence of R271A nvTRPM2 (A7T1N0 whole entry R271A): as the sequence (A7T1N0 whole entry T143A) above, with A143T, R271A counted along it

## Nc1ncnc2c1ncn2[C@@H]1O[C@H](COP(=O)(O)OP(=O)(O)OC[C@H]2O[C@@H](O)C(O)[C@H]2O)C(O)[C@@H]1OP(=O)(O)O (some centres unmarked) [ADPRP, ADPR-2′-phosphate]
[1]; 125 µM Ca2+ + 2.5 µM PIP2
  Hill coefficient nH for channel activation: 1.7 ± 0.2
[1]; [9]
  EC50: 0.089 ± 0.005 µM
[2]; 125 µM Ca2+ + 2.5 µM PIP2
  Hill coefficient nH for channel activation: 1.8 ± 0.1
[2]; [9]
  EC50: 1.5 ± 0.1 µM
[3]; 125 µM Ca2+ + 2.5 µM PIP2
  Hill coefficient nH for channel activation: 2.1 ± 0.2
[4]; read-out: EC50 for hsTRPM2, activation, inside-out patches, saturating cytosolic Ca2+, ref Tóth et al., 2015
  EC50: 13 ± 1 µM
[4]; ref Tóth et al., 2015
  Mode of action on hsTRPM2: low-affinity partial agonist
[5]; 125 µM Ca2+ + 2.5 µM PIP2
  Hill coefficient nH for channel activation: 1.4 ± 0.2
[5]; [9]
  EC50: 3.9 ± 0.5 µM
[6]; 125 µM Ca2+ + 2.5 µM PIP2
  Hill coefficient nH for channel activation: 1.8 ± 0.3
[7]; 125 µM Ca2+ + 2.5 µM PIP2
  Hill coefficient nH for channel activation: 1.6 ± 0.2
[7]; [9]
  EC50: 12 ± 1 µM
[8]; 125 µM Ca2+
  Mode of action on nvTRPM2: full agonist
  Maximal fractional activation: 1.06 ± 0.03
[8]; EC50 ratio versus ADPR
  Potency for activating WT nvTRPM2 relative to ADPR: approximately fivefold
[8]; WT nvTRPM2, 125 µM Ca2+ + 2.5 µM PIP2
  Hill coefficient nH for channel activation: 1.8 ± 0.2
[8]; [10]
  Hill coefficient nH for channel activation: 2.1 ± 0.4
[8]; read-out: EC50 for channel activation, WT nvTRPM2, 125 µM Ca2+ + 2.5 µM PIP2
  EC50: 0.31 ± 0.02 µM
[8]; [11]
  EC50: ~0.4 µM

## Nc1ncnc2c1ncn2[C@H]1C[C@H](O)[C@@H](COP(=O)(O)OP(=O)(O)OC[C@H]2OC(O)[C@H](O)[C@@H]2O)O1 (some centres unmarked) [dADPR, 2′-deoxy-ADPR]
[4]; larger maximal whole-cell currents compared with ADPR, ref Fliegert et al., 2017
  Mode of action on hsTRPM2: super-agonist
[8]; 125 µM Ca2+
  Mode of action on nvTRPM2: similarly efficacious and potent as ADPR
  Maximal fractional activation: 1.1 ± 0.04
[8]; [10]
  Hill coefficient nH for channel activation: 1.3 ± 0.2
[8]; [11]
  EC50: ~2.7 µM and 2.7 µM

## [Ca+2] [Ca^2+]
[1]; read-out: EC50 for channel activation by Ca2+ (fractional Po), saturating ADPRP (10 µM) + 2.5 µM PIP2
  EC50: 1.68 ± 0.04 µM
[1]; saturating ADPRP (10 µM) + 2.5 µM PIP2
  Hill coefficient nH for activation by Ca2+: 3.0 ± 0.2
[2]; [12]
  EC50: 0.64 ± 0.02 µM
[2]; [13]
  Hill coefficient nH for activation by Ca2+: 2.3 ± 0.2
[3]; [14]
  EC50: 1.1 ± 0.04 µM
[3]; [15]
  Hill coefficient nH for activation by Ca2+: 2.0 ± 0.2
[5]; [12]
  EC50: 1.8 ± 0.1 µM
[5]; [13]
  Hill coefficient nH for activation by Ca2+: 2.3 ± 0.1
[6]; [14]
  EC50: 2 ± 0.1 µM
[6]; [15]
  Hill coefficient nH for activation by Ca2+: 1.8 ± 0.1
[7]; [14]
  EC50: 0.93 ± 0.05 µM
[7]; [15]
  Hill coefficient nH for activation by Ca2+: 1.9 ± 0.2
[8]; WT, saturating ADPRP (10 µM) + 2.5 µM PIP2
  Hill coefficient nH for activation by Ca2+: 1.7 ± 0.2

## CCCCCCCC(=O)OC[C@H](COP(=O)(O)O[C@@H]1[C@H](O)[C@H](O)[C@@H](OP(=O)(O)O)[C@H](OP(=O)(O)O)[C@H]1O)OC(=O)CCCCCCC [PIP2, phosphatydyl-inositol-4-5-bisphosphate]
[1]; [16]
  Stimulation of macroscopic current by exogenous PIP2: approximately twofold
[2]; [17]
  Stimulation of macroscopic current by exogenous PIP2: small fractional stimulation
[5]; [16]
  Stimulation of macroscopic current by exogenous PIP2: ~80 fold
[6]; [16]
  Stimulation of macroscopic current by exogenous PIP2: ~40 fold
[7]; [17]
  Stimulation of macroscopic current by exogenous PIP2: small fractional stimulation
[8]; WT, 125 µM Ca2+ + 3.2 mM ADPR
  Stimulation of macroscopic current by exogenous PIP2: only marginal additional stimulation

## O=P(O)(OC[C@H]1OC(O)[C@H](O)[C@@H]1O)OP(=O)(O)OC[C@H]1O[C@@H](n2cnc3c2ncn2ccnc32)[C@H](O)[C@@H]1O (some centres unmarked) [ε-ADPR, 1,N^6-ethenoadenosine-5′-O-diphosphoribose]
[4]; ref Iordanov et al., 2016
  Mode of action on hsTRPM2: low-affinity antagonist
[8]; 125 µM Ca2+
  Mode of action on nvTRPM2: low-affinity antagonist
[8]; 200 µM, 125 µM cytosolic Ca2+
  Current induced by the analogue alone: only tiny currents
[8]; coapplication of 200 µM ε-ADPR, 125 µM Ca2+
  Reduction of currents elicited by 3.2 µM ADPR: ~25%
